One experiment deals with zebrafish embryos. In words: zebrafish embryos incubated with stretch-activated ion channel modulators, qRT-PCR and WISH for HSPC surrogate markers. The class given is in vivo. The conditions noted are these: control zebrafish embryos, incubation between 19-42 hpf. The text has this:
An impact of circumferential stretch is communicated by member(s) of the […] superfamily, Trp-superfamily, ENaC/DEG superfamily, and/or Piezo family (36-39). […] However, the direct role of Trpv4 in HSC emergence has not been established. We therefore treated zebrafish embryos with a pan-inhibitor of Trpv channels (Ruthenium RED; (41)), Trpv4 antagonist (GSK 205; (42)), and Trpv4 agonist (GSK101; (29)) between 19-42 hpf, followed by qRT-PCR and WISH for HSPC surrogate markers (c-myb and runx1).
In general terms: Real-time PCR tracks product formation cycle by cycle.

Experiment [1] relates to E11.5 AGM cells. In words: E11.5 AGM explant culture with drugs followed by colony formation (CFU) assay. The class given is cell-based, mouse. The settings on record: for multipotent GEMM colony formation: E11.5 AGM, 24-48 hr incubation, CFU assay. The text has this: We first coated each well of the 6-well FlexCell plate using Fibronectin/Matrigel and allowed it to settle on the nylon membrane of each well. Then we seeded two embryo equivalent (e.e.) single-cell suspension of AGM (composed of endothelial, hemogenic endothelial, hematopoietic, vascular smooth muscle (VSMCs), and mesenchymal stromal cells)-derived cells in each FlexCell well, with a coating of Fibronectin/Matrigel allows AGM-derived (sorted or not sorted) cells to adhere to the bottom of the well. We filled each well with an explant culture medium containing Myelocult and growth factors (27, 28). We put these 6-well plates into the FlexCell machine and applied cyclic strain (4-12%) for 6-48 hours using customized pins hooked to the bottom of each well. We inserted the customized rubber gasket in several wells to simulate static control conditions as well. Next we added drugs modulating the stretch-activated ion channel signaling in a few wells undergoing the external cyclic strain. After 6-48 hours of external stimulation of circumferential stretch, we harvested AGM-derived cells from the FlexCell plate and analyzed their capacity to make hematopoietic cells: (I) We performed CFU assays using Methocult media to count multi-potential granulocyte, erythroid, macrophage, megakaryocyte progenitors (GEMM), granulocyte-macrophage progenitors (CFU-GM, CFU-M, CFU-G), and erythroid progenitor (BFU-E) colonies after seven days of seeding AGM derived sorted cells. (II) We analyzed the expression levels of Runx1, c-Myb, Lmo2, Gata2, CD144, and Gata1. (III) We also stained AGM-derived cells with fluorescently labeled conjugated antibodies to measure the expression levels of Flk1, CD144, CD41, c-Kit, & CD45.2. (IV) We injected two e.e. AGM (donor; CD45.2)-derived cells in sub-lethally irradiated CD45.1 (SJL; recipient) mice. We analyzed long-term engraftment and multi-lineage reconstitution potential of donor cells for 16 weeks followed by serial-transplantation to differentiate between HSCs and hemogenic endothelial cells. (V) We also performed limiting dilution assays to analyze the number of HSCs generated per AGM-derived cell following 2D circumferential stretch.
Using a customized bioreactor based on organ-on-a-chip (FIG. 4), we applied 2D circumferential stretch (6% cyclic strain, 24 hr) to a single cell suspension of two e.e. E11.5 AGM cells. In parallel, we also incubated two e.e. E11.5 AGM static cells with Trpv4 agonist (GSK101 (29)).
(§1) In mice, the first heartbeat occurs at E8.25, and HSCs begin to emerge from AGM-derived hemogenic endothelium between E10.5-E12.5 (10, 11). To investigate whether circumferential stretch-activated ion channels are also involved in mammalian HSC emergence, we incubated E11.5 AGM with non-specific SAC channels inhibitor (GdCl3) and pan-Trpv channel inhibitor (Ruthenium Red) in explant culture media and analyzed their hematopoietic CFU capacity, and the expression of endothelial and hematopoietic genes (CD41, CD45.2, c-Kit, Flk1, CD144).
To further investigate the influence of Trpv4 on HSC formation from hemogenic endothelial cells, we incubated E11.5 AGM (28) with Trpv4 agonist (GSK101, 4α-PDD (44)) and Trpv4 antagonist (GSK 205) for 24-48 hr (FIG. 9).

Another experiment has as its system E11.5 AGM. In words: E11.5 AGM explant culture, expression of endothelial and hematopoietic genes. The experiment is classed as cell-based, mouse. The conditions noted are these: data not shown. On the procedure:
as §1

Another experiment deals with cdh5-silenced embryos. Kind of experiment: cdh5-silenced zebrafish embryos incubated with NOS inhibitor, HSC formation. The conditions noted are these: incubation between 19-48 hpf. The class given is in vivo. The source says:
In zebrafish the heart begins to beat around 23 hpf, the blood circulation begins at approximately 24-26 hpf, and definitive HSCs emerge from hemogenic endothelial cells in the AGM region between 26-48 hpf (11). Blood flow generates shear-stress on the ventral wall of the aortic endothelium and stimulates the endothelial-to-HSC transition by activating the NOS pathway (12, 13). When we performed time-lapse confocal imaging of both the control and the cdh5-silenced cd41:eGFP:flk1:mCherry embryos between 30-48 hpf, we found cdh5-silenced cd41:eGFP^low HSCs emerging from flk1:mCherry^+ endothelial cells despite early circulation arrest (FIG. 1A-B). In addition, we incubated cdh5-silenced embryos in the presence of L-NAME, a pharmacological inhibitor of NOS (12), between 19-48 hpf. […] Thus, HSCs would emerge from hemogenic endothelial cells, despite impaired circulation and NOS inhibition. These striking data led us to investigate shear stress-independent biomechanical and molecular mechanisms responsible for the endothelial transition to HSCs.

Experiment [2] has as its system human umbilical vein endothelial cells (HUVEC). Kind of experiment: incubation of HUVEC with Trpv4 agonist, intracellular calcium levels. The class given is cell-based.
A further experiment concerns sih-silenced embryos. In words: silent heart (sih)-silenced zebrafish embryos incubated with trpv4 agonist, HSPC formation. The class given is in vivo. How it is done: Silent heart cardiac troponin (sih, tnnt2)-mutant embryos lack heartbeat and blood circulation (43). […] Because heartbeat-mediated pulse pressure on blood vessels stimulates HSC emergence, we studied whether the activation of the Trpv4 ion channels triggers HSC formation in the absence of a heartbeat and blood circulation. We therefore incubated sih-silenced embryos (casper or cd41:eGFP::flk1:mCherry) with trpv4 agonist (GSK101) between 19-42 hpf.

The subject of experiment [3] is E11.5 AGM cells. Kind of experiment: transplant of treated E11.5 AGM cells into irradiated recipient mice, engraftment and multi-lineage reconstitution. The conditions noted are these: 2 e.e. AGM per recipient. The experiment is classed as in vivo, mouse. The source says:
We first coated each well of the 6-well FlexCell plate using Fibronectin/Matrigel and allowed it to settle on the nylon membrane of each well. Then we seeded two embryo equivalent (e.e.) single-cell suspension of AGM (composed of endothelial, hemogenic endothelial, hematopoietic, vascular smooth muscle (VSMCs), and mesenchymal stromal cells)-derived cells in each FlexCell well, with a coating of Fibronectin/Matrigel allows AGM-derived (sorted or not sorted) cells to adhere to the bottom of the well. We filled each well with an explant culture medium containing Myelocult and growth factors (27, 28). […] After 6-48 hours of external stimulation of circumferential stretch, we harvested AGM-derived cells from the FlexCell plate and analyzed their capacity to make hematopoietic cells: (I) We performed CFU assays using Methocult media to count multi-potential granulocyte, erythroid, macrophage, megakaryocyte progenitors (GEMM), granulocyte-macrophage progenitors (CFU-GM, CFU-M, CFU-G), and erythroid progenitor (BFU-E) colonies after seven days of seeding AGM derived sorted cells. (II) We analyzed the expression levels of Runx1, c-Myb, Lmo2, Gata2, CD144, and Gata1. […] We analyzed long-term engraftment and multi-lineage reconstitution potential of donor cells for 16 weeks followed by serial-transplantation to differentiate between HSCs and hemogenic endothelial cells. […]

Entries after “also recorded” stand apart in the source; their conditions may differ.

As to `N.N.N.N.N.N.N.N.N.N.N.N.N.N.[Cl-].[Cl-].[Cl-].[Cl-].[Cl-].[Cl-].[O-2].[O-2].[Ru+3].[Ru+3].[Ru+4]` [Ruthenium Red], in the experiment on zebrafish embryos, the “expression of HSPC surrogate markers runx1 and c-myb” value is “reduction in runx1 and c-myb expression”. In the experiment on E11.5 AGM cells [1], the “multipotent GEMM colony formation” value is given as “attenuates GEMM formation; also recorded: reduced”. Besides, the “expression of hematopoietic genes” value in the experiment on E11.5 AGM is “reduced”.
Take `[Cl][Gd]([Cl])[Cl]` [GdCl3, Gadolinium Chloride]: the “expression of HSPC surrogate markers runx1 and c-myb” value in the experiment on zebrafish embryos was “reduced”. In addition, in the experiment with E11.5 AGM cells [1] (listed as GdC13), the “multipotent GEMM colony formation” value is “attenuates GEMM formation; also recorded: reduced”. The “expression of hematopoietic genes” value in the experiment with E11.5 AGM is recorded as “reduced”.
On to `CCCCCCCCCC(=O)O[C@@H]1[C@@H](C)[C@@]2(O)[C@@H](C=C(CO)C[C@@]3(O)C(=O)C(C)=C[C@@H]23)[C@@H]2C(C)(C)[C@]12OC(=O)CCCCCCCCC` [4α-PDD, 4alpha-phorbol 12,13-didecanoate], for which the “multipotent GEMM colony formation” value with E11.5 AGM cells [1] was “stimulates multipotent progenitor (GEMM) formation; also recorded: stimulated multipotent GEMM formation”.
Turning to `COC(=O)[C@@H](N)CCCNC(=N)N[N+](=O)[O-]` [L-NAME], the “HSC formation (zf-runx1 and zf-c-Myb expression)” value in the experiment with cdh5-silenced embryos is “did not abolish HSC formation”.
Turning to `CCCCCCOC(=O)[C@]1(O)C[C@@H]2O[C@@]1(C)n1c3ccccc3c3c4c(c5c6ccccc6n2c5c31)C(=O)NC4` [KT5720], in the experiment on E11.5 AGM cells [1] (E11.5 AGM explant culture, together with Trpv4 agonist GSK101, 24 hr), the “Trpv4 agonist-mediated increase in multipotent GEMM formation” value is “attenuated; also recorded: attenuates stimulating impact of Trpv4 agonist”.
Consider `CC(C)C[C@H](NC(=O)c1cc2ccccc2s1)C(=O)N1CCN(C(=O)[C@H](CO)NS(=O)(=O)c2ccc(Cl)cc2Cl)CC1` [GSK101], for which the “expression of HSPC surrogate markers runx1 and c-myb” value with zebrafish embryos was “enhances HSPC formation; also recorded: increased the expression of HSPC markers”. In addition, the “[Ca+2]i levels” value in experiment [2] is “increase in [Ca^+2]i levels”. Moreover, the “multipotent GEMM colony formation” value with E11.5 AGM cells [1] is given as “Increase in GEMM; also recorded: stimulates multipotent progenitor (GEMM) formation; also recorded: enhanced GEMM formation; also recorded: stimulated multipotent GEMM formation”. Besides, the “formation of cd41:eGFP+ HSCs” value in the experiment with sih-silenced embryos (sih-silenced cd41-eGFP:flk1-mCherry embryos) is reported as “rescues the formation of cd41:eGFP^+ HSCs”. The “HSPC formation (mRNA expression levels of runx1 and c-myb)” value in the experiment on sih-silenced embryos (sih-silenced embryos, 19-42 hpf, WISH and qRT-PCR) is on record as “rescues hematopoietic stem progenitor cell (HSPC) formation”. Moreover, the “percentage of engraftment (CD45.2+ peripheral blood chimerism)” value in the experiment on E11.5 AGM cells [3] (after 8 weeks) is listed as “Increase; also recorded: increased the percentage of engraftment”. Moreover, in the experiment on E11.5 AGM cells [3] (peripheral blood after 8 weeks), the multi-lineage reconstitution entry was “increased”.

Values taken from patent publication US11162073B2, “Methods for generating functional hematopoietic stem cells” (The Brigham and Women's Hospital, Inc., priority 2015, dated 2021).
